These results are taken from US20220313650A1, “METHODS FOR TREATING NEURODEVELOPMENTAL DISORDERS” (The Broad Institute, Inc., priority 2019, published 2022).

For one test, the system named is SK channels. The test is described as follows: SK current recording in TRN neurons. It counts as cell-based, mice. As to conditions: in the presence of LY379268. On the procedure:
For conducting slice electrophysiology analysis, whole-cell patch-clamp recordings were performed using horizontal slices for the rebound bursting assays and angled-coronal thalamocortical slices for the synaptic optogenetics experiments (Agmon et al., 1991). 21-35 day old male C57BL6 mice and Ptchd1 Y/− (knockout) mice were used. Animals were transcardially perfused under isoflurane anesthesia with an ice-cold cutting solution (194 mM Sucrose, 30 mM NaCl, 4.5 mM KCl, 1.2 mM NaH2PO4, 10 mM Glucose, 2 mM MgCl2, 0.2 mM CaCl2, and 26 mM NaHCO3). Mice were then decapitated and the brains were carefully dissected out. Both cerebellum and olfactory bulb were removed from the brain and were placed and glued onto the stage of a Leica Vibratome with the ventral surface down and the pial surface towards the blade. […]
The channel conductance of SK channels and low-threshold T-type Ca2+ channels at different holding membrane potentials ranging from −80 mV to −50 mV in the presence or absence of SK channel blockers was evaluated in order to further determine how the activation of mGluR2/3 in TRN neurons enhanced the rebound bursting.

Another test concerns thalamo-TRN synapses. Briefly: Optogenetically evoked EPSCs in patched TRN neurons, thalamo-TRN pathway. Format: cell-based, mice. As to conditions: patched TRN neurons, LY379268 bath application. On the procedure: For conducting slice electrophysiology analysis, whole-cell patch-clamp recordings were performed using horizontal slices for the rebound bursting assays and angled-coronal thalamocortical slices for the synaptic optogenetics experiments (Agmon et al., 1991). 21-35 day old male C57BL6 mice and Ptchd1 Y/− (knockout) mice were used. Animals were transcardially perfused under isoflurane anesthesia with an ice-cold cutting solution (194 mM Sucrose, 30 mM NaCl, 4.5 mM KCl, 1.2 mM NaH2PO4, 10 mM Glucose, 2 mM MgCl2, 0.2 mM CaCl2, and 26 mM NaHCO3). Mice were then decapitated and the brains were carefully dissected out. Both cerebellum and olfactory bulb were removed from the brain and were placed and glued onto the stage of a Leica Vibratome with the ventral surface down and the pial surface towards the blade. 250 micron thick slices containing the TRN were then collected and recovered in regular artificial cerebrospinal fluid (aCSF; 119 mM NaCl, 2.3 mM KCl, 1 mM NaH2PO4; 11 mM Glucose, 1.3 mM MgCl2, 2.5 mM CaCl2), 26 mM NaHCO3) heated to 32° C. for 10 minutes and then at room temperature for at least 1 hr. All buffers were continuously bubbled with 95% O2/5% C02. Slices were then transferred to a submersion recording chamber where they were perfused with aCSF at a rate of 2 ml/min at room temperature. Patch recording pipettes were pulled using a Flaming/Brown micropipette puller (Sutter Instruments) and Borosilicate glass (KG33, King Precision Glass). The DC resistances were ˜4-6 MΩ. Potassium methanesulfonate based internal solution (140 mM KMeSO3; 10 mM KCl; 10 mM HEPES; 0.1 mM EGTA; 4 mM Mg-ATP; 0.2 mM Na-GTP; 10 mM hosphocreatine) was used. Neurons were visualized using infrared differential interference contrast (IR-DIC) microscopy (Olympus, BX51W1) with an upright microscope digital camera. […]
After allowing 1-2 weeks for mcherry-dflox.hChR2.EF1.AAV1 expression, acute somatosensory thalamocortical or horizontal brain slices were freshly obtained for in vitro recording and optogenetic stimulation (250 um thick, thalamocortical slices containing TRN from angled-coronal sections; Agmon and Connors, 1991) for optogenetic analysis. In brief, patch clamp recordings in voltage clamp configuration were performed while the Cortico-TRN or Thalamic-TRN pathway was activated by applying a blue LED (400-450 nm) light pulses (Lumen 300-LED Fluorescence Excitation Illumination System). For synaptic stimulation, neurons were held at −70 mV while 0.1-1.5 ms flashes were delivered directly to the recorded cell soma delivered through the 40× water immersion objective. […]

Turning to `N[C@@]1(C(=O)O)COC2C(C(=O)O)C21` (stereo in doubt) [LY379268, (1R,4R,5S,6R)-4-Amino-2-oxabicyclo[3.1.0] hexane-4,6-dicarboxylic acid], in the test on SK channels, the “current mediated by SK (max outward currents, SK channel conductance)” value is “significantly increased”. The “thalamo-TRN evoked EPSCs” value in the test with thalamo-TRN synapses was “did not affect the thalamo-TRN evoked EPSCs”.
